# Where a name gives a salt, the structure may show the parent alone.
# Legend:
# Experiment in all cases: CDK Kinase Inhibition Assay
# [1] = target: Cyclin-dependent kinase 2/G1/S-specific cyclin-E1 (Homo sapiens, UniProt P24941); conditions: 25 °C
# Protocol: (§1) In vitro CDK assay using purified enzyme, was incubated at room temperature with substrate, and test compounds in the presence of ATP/[gamma-33P]ATP. 33P incorporation was measured with a Top Count (Packard). IC50 is the inhibitor concentration which inhibits 50% of kinase activity that catalyzes the transfer of the terminal phosphate from 33P labeled ATP to the substrate.
# [2] = target: Cyclin-dependent kinase 4/G1/S-specific cyclin-D1 (Homo sapiens, UniProt P11802); conditions: pH 7; 22 °C
# Protocol: as §1
# [3] = target: cAMP-dependent protein kinase catalytic subunit alpha (Bos taurus, UniProt P00517); conditions: 25 °C
# Sequence of Cyclin-dependent kinase 4/G1/S-specific cyclin-D1 (P11802 whole entry): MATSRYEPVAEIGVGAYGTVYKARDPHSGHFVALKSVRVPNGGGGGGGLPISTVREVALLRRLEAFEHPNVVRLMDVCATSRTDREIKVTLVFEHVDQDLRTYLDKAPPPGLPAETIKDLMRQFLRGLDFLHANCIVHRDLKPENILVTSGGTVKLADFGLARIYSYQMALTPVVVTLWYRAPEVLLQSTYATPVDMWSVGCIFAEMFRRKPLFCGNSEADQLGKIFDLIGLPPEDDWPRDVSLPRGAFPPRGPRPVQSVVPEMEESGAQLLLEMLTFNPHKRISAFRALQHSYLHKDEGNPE
# Sequence of Cyclin-dependent kinase 4/G1/S-specific cyclin-D1 (P24385 whole entry, further chain): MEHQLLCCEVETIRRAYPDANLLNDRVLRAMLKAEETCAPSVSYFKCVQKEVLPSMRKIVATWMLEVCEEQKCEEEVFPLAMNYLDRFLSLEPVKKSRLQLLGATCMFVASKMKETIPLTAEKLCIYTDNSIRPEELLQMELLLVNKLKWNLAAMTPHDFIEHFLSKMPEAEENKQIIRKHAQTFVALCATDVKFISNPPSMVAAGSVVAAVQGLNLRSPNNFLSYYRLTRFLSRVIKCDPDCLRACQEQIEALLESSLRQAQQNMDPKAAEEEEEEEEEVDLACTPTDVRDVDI
Compound,IC50 [1] [nM],IC50 [2] [nM],IC50 [3] [nM]
"O=C1NC(=O)c2c1c1c3ccccc3[nH]c1c1c2c2cccc3c2n1CCNC3 [1,4,14,24-tetraazaheptacyclo[16.8.1.0^{2,17}.0^{3,11}.0^{5,10}.0^{12,16}.0^{22,27}]heptacosa-2(17),3(11),5(10),6,8,12(16),18(27),19,21-nonaene-13,15-dione hydrochloride]",38,27,
"O=C1NC(=O)c2c1c1c3ccccc3[nH]c1c1c2c2cccc3c2n1CCNCC3 [1,4,14,25-tetraazaheptacyclo[16.9.1.0^{2,17}.0^{3,11}.0^{5,10}.0^{12,16}.0^{22,28}]octacosa-2(17),3(11),5(10),6,8,12(16),18(28),19,21-nonaene-13,15-dione hydrochloride]",,160,
"O=C1NC(=O)c2c1c1c3ccc(C(F)(F)F)c(CO)c3[nH]c1c1c2c2cccc3c2n1CCNC3 [6-(hydroxymethyl)-7-(trifluoromethyl)-1,4,14,24-tetraazaheptacyclo[16.8.1.0^{2,17}.0^{3,11}.0^{5,10}.0^{12,16}.0^{22,27}]heptacosa-2(17),3(11),5(10),6,8,12(16),18(27),19,21-nonaene-13,15-dione hydrochloride]",,44,
"O=C1NC(=O)c2c1c1c3cc(F)c(F)cc3[nH]c1c1c2c2cccc3c2n1CCNC3 [7,8-difluoro-1,4,14,24-tetraazaheptacyclo[16.8.1.0^{2,17}.0^{3,11}.0^{5,10}.0^{12,16}.0^{22,27}]heptacosa-2(17),3(11),5(10),6,8,12(16),18(27),19,21-nonaene-13,15-dione hydrochloride]",,110,> 2000
"O=C1NC(=O)c2c1c1c3ccc(C(F)(F)F)cc3[nH]c1c1c2c2cccc3c2n1CCNC3 [7-(trifluoromethyl)-1,4,14,24-tetraazaheptacyclo[16.8.1.0^{2,17}.0^{3,11}.0^{5,10}.0^{12,16}.0^{22,27}]heptacosa-2(17),3(11),5(10),6,8,12(16),18(27),19,21-nonaene-13,15-dione hydrochloride]",,69,> 2000
"O=C1NC(=O)c2c1c1c3ccc(F)cc3[nH]c1c1c2c2cccc3c2n1CCNC3 [7-fluoro-1,4,14,24-tetraazaheptacyclo[16.8.1.0^{2,17}.0^{3,11}.0^{5,10}.0^{12,16}.0^{22,27}]heptacosa-2(17),3(11),5(10),6,8,12(16),18(27),19,21-nonaene-13,15-dione hydrochloride]",16,,
"O=C1NC(=O)c2c1c1c3cc(F)ccc3[nH]c1c1c2c2cccc3c2n1CCNC3 [8-fluoro-1,4,14,24-tetraazaheptacyclo[16.8.1.0^{2,17}.0^{3,11}.0^{5,10}.0^{12,16}.0^{22,27}]heptacosa-2(17),3(11),5(10),6,8,12(16),18(27),19,21-nonaene-13,15-dione hydrochloride]",,34,
"NCC(=O)N1CCn2c3c(cccc3c3c4c(c5c6ccccc6[nH]c5c32)C(=O)NC4=O)C1 [24-(2-aminoacetyl)-1,4,14,24-tetraazaheptacyclo[16.8.1.0^{2,17}.0^{3,11}.0^{5,10}.0^{12,16}.0^{22,27}]heptacosa-2(17),3(11),5(10),6,8,12(16),18(27),19,21-nonaene-13,15-dione hydrochloride]",,100,> 2000
"CC(C)N1CCn2c3c(cccc3c3c4c(c5c6ccccc6[nH]c5c32)C(=O)NC4=O)C1 [24-(propan-2-yl)-1,4,14,24-tetraazaheptacyclo[16.8.1.0^{2,17}.0^{3,11}.0^{5,10}.0^{12,16}.0^{22,27}]heptacosa-2(17),3(11),5(10),6,8,12(16),18(27),19,21-nonaene-13,15-dione]",,78,> 2000
"Cn1cnc(S(=O)(=O)N2CCn3c4c(cccc4c4c5c(c6c7ccccc7[nH]c6c43)C(=O)NC5=O)C2)c1 [24-[(1-methyl-1H-imidazole-4-)sulfonyl]-1,4,14,24-tetraazaheptacyclo[16.8.1.0^{2,17}.0^{3,11}.0^{5,10}.0^{12,16}.0^{22,27}]heptacosa-2(17),3(11),5(10),6,8,12(16),18(27),19,21-nonaene-13,15-dione]",,120,> 2000
"CS(=O)(=O)N1CCn2c3c(cccc3c3c4c(c5c6ccccc6[nH]c5c32)C(=O)NC4=O)C1 [24-methanesulfonyl-1,4,14,24-tetraazaheptacyclo[16.8.1.0^{2,17}.0^{3,11}.0^{5,10}.0^{12,16}.0^{22,27}]heptacosa-2(17),3(11),5(10),6,8,12(16),18(27),19,21-nonaene-13,15-dione]",,53,> 2000

# — BindingDB's records for doi:10.1016/j.bmcl.2004.05.088 (Eli Lilly, 2004)
